{"source": "patent US8535928B2", "about": "“Protease and use thereof” (Osaka University, priority 2008, dated 2013)", "target": "T1, Thermococcus kodakaraensis KOD1 protease Tk-SP (mature subtilisin-like serine protease, SEQ ID NO: 1 or SEQ ID NO: 3) (Thermococcus kodakarensis, UniProt Q5JIZ5)", "T1 construct": "C-terminus at 562 or 563", "T1 sequence (Q5JIZ5 137-562)": "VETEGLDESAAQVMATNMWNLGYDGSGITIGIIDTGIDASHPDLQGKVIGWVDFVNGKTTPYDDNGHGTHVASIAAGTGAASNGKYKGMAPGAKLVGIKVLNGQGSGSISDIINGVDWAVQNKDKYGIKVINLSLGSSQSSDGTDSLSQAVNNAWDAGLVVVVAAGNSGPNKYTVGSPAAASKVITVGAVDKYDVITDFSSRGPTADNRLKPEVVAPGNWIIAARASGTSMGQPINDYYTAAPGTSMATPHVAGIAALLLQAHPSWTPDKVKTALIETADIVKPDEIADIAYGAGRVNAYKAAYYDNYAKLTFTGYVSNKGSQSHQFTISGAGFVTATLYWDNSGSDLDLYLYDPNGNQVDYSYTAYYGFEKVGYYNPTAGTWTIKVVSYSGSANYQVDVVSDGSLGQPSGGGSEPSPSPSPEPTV", "assay": "Rate parameters of Tk-SP with Suc-AAPF-pNA (Michaelis-Menten)", "format": "biochemical", "procedure": "For examination of the pH dependence and the buffer dependence of the Tk-SP, enzyme reactions were performed using acetate buffers (pH 4.5, 5.0, 5.2, 5.4 and 5.6), MES buffers (pH 5.5, 6.0, 6.5 and 7.0), HEPES buffers (pH 7.0 and 7.5), Tris-HCl buffers (pH 7.0, 7.5, 8.0, 8.5 and 9.0), glycine-NaOH buffers (pH 8.5, 9.0, 9.5 and 10.0) and CAPS-NaOH buffers (pH 9.0, 9.5, 10.0, 10.5, 11.0 and 11.5) in the following procedure. 100 μl of a reaction mixture containing a 50 mM buffer and 2 mM Suc-AAPF-pNA (synthetic substrate) was incubated at 20° C. for 5 minutes. To this, 0.1 μg of the Tk-SP was added and the reaction mixture was further incubated at 20° C. for 10 minutes. The reaction was stopped by addition of 10 μl of acetic acid, and then the amount of p-nitroaniline produced from the synthetic substrate Suc-AAPF-pNA was determined by use of the absorption coefficient of 8900 M^−1 cm^−1 from the absorbance at 410 nm in an ultraviolet spectrophotometer (Beckman model DU640). The amount of the enzyme which catalyzes the production of 1 μmol of p-nitroaniline per minute was defined as “one unit.” The enzyme activity per milligram of the protein was defined as specific activity.\nBy use of, as a substrate, Suc-AAPF-pNA at various concentrations ranging from 0.01 to 2 mM, the specific activity of the Tk-SP was measured at 20 and 80° C. The measurement procedure was the same as that of Example 2. The obtained values were applied to the Michaelis-Menten equation for calculation of the rate parameters. For comparison, the specific activity of a known thermostable protease, Tk-subtilisin (see nonpatent literature 1) was similarly measured and then the rate parameters thereof were calculated.", "note": "Starred links: 1 amine or outer side, 2 acyl side, 3 side chain; linkers in the order of their positions; H or OH if unused. Residues, ends and D or L forms follow the SMILES beside them. *: point of attachment. pNA = O=[N+]([O-])c1ccc(N*)cc1; Suc = O=C(CCC(=O)[*:2])[*:1]", "data": [{"compound": "C[C@H](NC(=O)CCC(=O)O)C(=O)N[C@@H](C)C(=O)N1CCC[C@H]1C(=O)N[C@@H](Cc1ccccc1)C(=O)Nc1ccc([N+](=O)[O-])cc1", "note": "[Suc-AAPF-pNA] (Suc-AAPF-pNA)", "values": [{"measurement": "Km value relative to the Km value of Tk-subtilisin", "setting": "80° C.", "result": "about 1/10"}, {"measurement": "Km", "setting": "80° C., substrate 0.01 to 2 mM", "result": "100 to 1000", "unit": "µM"}, {"measurement": "Km value compared with that of Tk-subtilisin", "setting": "at either temperature (20 and 80° C.)", "result": "smaller than that of Tk-subtilisin"}]}]}
